Measurements from publication PMC10269926, “The LiaFSR-LiaX System Mediates Resistance of Enterococcus faecium to Peptide Antibiotics and to Aureocin A53- and Enterocin L50-Like Bacteriocins” (Microbiology Spectrum, 2023).
Values after ≈ are worked out from the molar mass of the structure shown.

Legend:
[1] = system: E. faecium MUT_145 (ΔliaFSR pGh:PptcB:liaR); conditions: antibiotic strips on agar, CM17 + 5 μg/mL Em, mean of three biological replicates
Experimental: (§1) The sensitivity of the mutants to AurA53- and EntL50-like bacteriocins, nisin, RAM, GRA, carbenicillin, and chlortetracycline was determined using microtiter plates with serial 2-fold dilutions of the antimicrobials, as described previously ([41]). The lowest concentration of the agent reducing visible bacterial growth by at least 50% was taken as the MIC (MIC50) value. The sensitivity to other antibiotics was determined using agar plates with antibiotic strips as described previously ([12]). The antibiotic concentration at the point where the inhibition zone intersected the strip was taken as the MIC value. The antibiotic susceptibilities of E. faecium LMGT 2783, MUT_130 to MUT_132, MUT_136 to MUT_139, and MUT_140 and MUT_141 were tested in ISO-BHI medium (Oxoid) supplemented with 5 μg/mL Em when appropriate, while those of E. faecium MUT_142 to MUT_149 were tested in CM17 medium supplemented with 5 μg/mL Em. To study the effects of NaCl and sodium dodecyl sulfate (SDS) on bacterial growth, saturated overnight cultures of E. faecium were used for inoculation at a dilution of 1:100 in BHI medium with serial dilutions of these compounds at concentrations of 0.5 to 10% (wt/vol) and 3.0 × 10^−2 to 2.5 × 10^−3% (wt/vol), respectively. Bacterial cultures were incubated at 37°C without shaking for 24 h in a Bioscreen turbidometric automated analyzer (Bioscreen C, Growth Curves Ltd., Finland) in Honeycomb 100-well plates (Oy Growth Curves Ab Ltd.). […] The assays were made at least in triplicate.

[2] = system: E. faecium MUT_147 (ΔliaFSR ΔliaX pGhost9 empty vector); conditions: antibiotic strips on agar, CM17 + 5 μg/mL Em, mean of three biological replicates
Experimental: as §1

[3] = system: E. faecium MUT_146 (ΔliaFSR pGh:PptcB:liaSR); conditions: antibiotic strips on agar, CM17 + 5 μg/mL Em, mean of three biological replicates
Experimental: as §1

[4] = system: E. faecium MUT_148 (ΔliaFSR ΔliaX pGh:PptcB:liaS); conditions: antibiotic strips on agar, CM17 + 5 μg/mL Em, mean of three biological replicates
Experimental: as §1

[5] = system: E. faecium MUT_150 (ΔliaFSR ΔliaX pGh:PptcB:liaSR); conditions: antibiotic strips on agar, CM17 + 5 μg/mL Em, mean of three biological replicates
Experimental: as §1

[6] = system: E. faecium MUT_143 (ΔliaFSR pGhost9 empty vector); conditions: antibiotic strips on agar, CM17 + 5 μg/mL Em, mean of three biological replicates
Experimental: as §1

[7] = system: E. faecium MUT_149 (ΔliaFSR ΔliaX pGh:PptcB:liaR); conditions: antibiotic strips on agar, CM17 + 5 μg/mL Em, mean of three biological replicates
Experimental: as §1

[8] = system: E. faecium MUT_144 (ΔliaFSR pGh:PptcB:liaS); conditions: antibiotic strips on agar, CM17 + 5 μg/mL Em, mean of three biological replicates
Experimental: as §1

[9] = system: E. faecium MUT_140 (liaFSR deletion) and MUT_141 (liaFSR plus liaX deletion); assay: Susceptibility of deletion strains as a group (microtiter MIC50 or antibiotic strips); assay type: cell-based, Enterococcus faecium; conditions: for Effect of the deletions on sensitivity (in words): both deletion strains MUT_140 and MUT_141 compared with WT
Experimental: as §1

[10] = system: E. faecium LMGT 2783 (WT); assay: microbe, parasite or virus in culture
Experimental: as §1

[11] = system: spontaneous E. faecium BHT-B-resistant mutants
Experimental: Spontaneous resistant mutants were obtained by growing E. faecium LMGT 2783 in the presence of the bacteriocin as described previously ([41]). […] The stability of changes in BHT-B sensitivity was determined by continuously subculturing mutants in BHI broth without bacteriocin. Subcultures were formed at 24-h intervals, and sensitivity to BHT-B was validated after 1, 5, and 10 passages with simultaneous control of culture purity.
as §1

[12] = system: E. faecium LMGT 2783 and its spontaneous mutants; assay: Effect of NaCl and SDS on bacterial growth (Bioscreen); assay type: cell-based, Enterococcus faecium; conditions: WT LMGT 2783 and all mutants, BHI, 37°C, 24 h, inoculum 1:100, lowest concentration (wt/vol) with at least 50% growth inhibition, at least triplicate
Experimental: (§2) The sensitivity of the mutants to AurA53- and EntL50-like bacteriocins, nisin, RAM, GRA, carbenicillin, and chlortetracycline was determined using microtiter plates with serial 2-fold dilutions of the antimicrobials, as described previously ([41]). The lowest concentration of the agent reducing visible bacterial growth by at least 50% was taken as the MIC (MIC50) value. The sensitivity to other antibiotics was determined using agar plates with antibiotic strips as described previously ([12]). The antibiotic concentration at the point where the inhibition zone intersected the strip was taken as the MIC value. The antibiotic susceptibilities of E. faecium LMGT 2783, MUT_130 to MUT_132, MUT_136 to MUT_139, and MUT_140 and MUT_141 were tested in ISO-BHI medium (Oxoid) supplemented with 5 μg/mL Em when appropriate, while those of E. faecium MUT_142 to MUT_149 were tested in CM17 medium supplemented with 5 μg/mL Em. To study the effects of NaCl and sodium dodecyl sulfate (SDS) on bacterial growth, saturated overnight cultures of E. faecium were used for inoculation at a dilution of 1:100 in BHI medium with serial dilutions of these compounds at concentrations of 0.5 to 10% (wt/vol) and 3.0 × 10^−2 to 2.5 × 10^−3% (wt/vol), respectively. […]

E. faecium MUT_132 = assay: Effect of SDS on bacterial growth (Bioscreen); assay type: cell-based, Enterococcus faecium
Experimental: as §2

[13] = LMGT 2783, WT, agar plates with antibiotic strips, point where inhibition zone intersects strip, ISO-BHI medium, mean of three biological replicates

Row | Compound | MIC [1] [µg/mL] | MIC [2] [µg/mL] | MIC [3] [µg/mL] | MIC [4] [µg/mL] | MIC [5] [µg/mL] | MIC [6] [µg/mL] | MIC [7] [µg/mL] | MIC [8] [µg/mL] | Fold increase in sensitivity relative to WT ([9]; both deletion strains MUT_140 and MUT_141) [fold] | MIC [10, 13] [µg/mL] | DAP MIC of the BHT-B-resistant mutants ([11]; BHT-B-resistant mutants obtained, antibiotic strips) [µg/mL] | Effect of the deletions on sensitivity (in words) [9] | MIC ([10]; Enterococcus faecium) [µg/mL] | Fold-lower sensitivity than that of WT E. faecium ([11]; {}) | MIC50 [12] [%] | MIC50 (E. faecium MUT_132; MUT_132, BHI, 37°C, 24 h, Bioscreen C, lowest concentration (wt/vol) with at least 50% growth inhibition, at least triplicate) [%] | Fold increase in susceptibility (E. faecium MUT_132; MUT_132 compared with the other strains) [fold]
1 | CCCCCCCCCC(=O)N[C@@H](Cc1c[nH]c2ccccc12)C(=O)N[C@H](CC(N)=O)C(=O)N[C@@H](CC(=O)O)C(=O)N[C@@H]1C(=O)NCC(=O)N[C@@H](CCCN)C(=O)N[C@@H](CC(=O)O)C(=O)N[C@H](C)C(=O)N[C@@H](CC(=O)O)C(=O)NCC(=O)N[C@H](CO)C(=O)N[C@@H]([C@H](C)CC(=O)O)C(=O)N[C@@H](CC(=O)c2ccccc2N)C(=O)O[C@@H]1C [DAP, daptomycin] | 6 | 0.38 | 3 | 0.38 | 8 | 0.38 | 12 | 0.38 | 48 | 3 (≈ 1.85 µM) | ≤ 8 |  |  |  |  |  | 
2 | CNC(C)C1CCC(N)C(OC2C(N)CC(N)C(OC3OCC(C)(O)C(NC)C3O)C2O)O1 (stereo not shown) [GEN, gentamicin] |  |  |  |  |  |  |  |  |  |  |  | unaffected | 4 (≈ 8.38 µM) | 2-8 fold |  |  | 
3 | NC[C@H]1O[C@H](O[C@H]2[C@H](O)[C@@H](O[C@H]3O[C@H](CO)[C@@H](O)[C@H](N)[C@H]3O)[C@H](N)C[C@@H]2N)[C@H](O)[C@@H](O)[C@@H]1O [KAN, kanamycin] | 64 | 32 | 64 | 32 | 128 | 32 | 128 | 32 |  | 32 (≈ 66 µM) |  | unaffected |  |  |  |  | 
4 | [Cl-].[Na+] [NaCl] |  |  |  |  |  |  |  |  |  |  |  |  |  |  | 6 |  | 
5 | CCCCCCCCCCCCOS(=O)(=O)[O-].[Na+] [SDS, sodium dodecyl sulfate] |  |  |  |  |  |  |  |  |  |  |  |  |  |  | 0.01 | 0.005 | 2
6 | bacitracin | 24 | 16 | 16 | 16 | 24 | 24 | 16 | 24 |  | 32 |  |  |  |  |  |  | 
